Test results from patent US20180291378A1, “METHODS AND COMPOSITIONS FOR PROMOTING HAIR GROWTH” (THE TRUSTEES OF COLUMBIA UNIVERSITY IN THE CITY OF NEW YORK, priority 2015, published 2018).

Key:
[1] = system: C57/B6 mice in telogen; test: Anagen induction by topical treatment of shaved wildtype mice in telogen; assay type: in vivo, mouse; details: for days of treatment until treated follicles re-initiate anagen: 7 week old mice, treated for 24 days; for mice displaying skin darkening and hair growth within 10 days of starting treatment: 8.5 week old mice treated for 5 days
Text: It was hypothesized that inhibition of JAK-STAT signaling promotes entry into the hair cycle in mice. To determine the onset of anagen, backskin hairs were trimmed with an electric shaver, and entry of HF into anagen was observed by the appearance of darkening skin and by hair regrowth. For the hair cycle experiments described in FIG. 1A, biopsies were taken from 2 mice/time point, and the experiment was replicated on 3 sets of littermates. For the experiments described in supp. FIGS. 1C&D, 3-4 mice were used per group (7 week vs. 8.5 week), and the experiment was replicated 3 times. […] The experiment presented in FIG. 1E was independently replicated once, with 3 mice/condition. The experiments described in FIG. 2A, 3 mice/genotype were utilized, and the experiment was replicated in 2 sets of littermates.
Ruxolitinib (INCB018424) was purchased from ChemieTek (catalog number CT-INCB). […] Hedgehog agonist (SAG) was purchased from EMD Millipore (catalog number 566660). JAK-STAT inhibitors were dissolved in DMSO and used at 2-3% for in vivo experiments, as indicated, and 400 nM for in vitro experiments. SAG was used at 120 uM, as described in Paladini et al (2).

[2] = system: OSM-Rβ; test: OSM-Rβ expression in mouse skin treated in vivo during telogen; details: whole skin biopsies daily over 5 days of treatment
[3] = system: human fetal scalp skin grafts; test: Human skin grafting assay on SCID mice; assay type: in vivo; details: daily topical application, 4 weeks
Procedure: The mice were bandaged, and the grafts were left to recover for 6 weeks. […] Grafts were treated daily with topical application of vehicle control, ruxolitinib or tofacitinib. Treatment continued for 4 weeks, and pictures were taken every 3-5 days. Experiments were performed with skin from 3 separate donors. Quantification of hair growth was performed using ImageJ. Taking advantage of the fact that the donor hair was dark and the grafted mouse was white, the intensity of pigmentation was measured as a proxy for density of HF. Since control and experimental treatments were performed on the same graft, each image allows for the direct comparison between vehicle- and drug-treated skin. Darker regions are given a lower value than bright regions. Ratio was calculated by averaging the intensity values for the control treated side, by the intensity values for drug-treated side, accounting for pre-treatment differences in hair growth on the graft and for changes in hair density occurring over time.

[4] = system: mouse keratinocytes; test: Colony forming assay with mouse keratinocytes harvested at telogen; assay type: cell-based
[5] = system: whole skin gene expression; test: Whole skin microarray / IPA pathway analysis after 4 days of treatment; assay type: in vivo, mouse; details: 8.5-week-old mice
Procedure: Gene expression profiling was performed on whole skin biopsies from 12 B6/C57 female mice, 8.5 weeks of age. Biopsies were taken from dorsal skin at day 0 (T0) of the experiment. […] Quality control was performed using the affy analysisQC package from http://arrayanalysis.org/. […] Data were normalized using the GCRMA method as implemented in affyAnalysisQC. LIMMA was used with a multilevel model to identify genes that were differentially expressed between samples at T5 and T0 for each treatment group (DMSO, RUXO, and TOFA) using a threshold of fold change=1.5 and P<0.05.
Total RNA was extracted using the Qiagen RNAeasy micro kit. The Ovation RNA Amplification kit (Nugen) was used to generate amplified cDNA for microarray analysis. Arrays used were Affymetrix mouse 430 2.0, hybridized at the CUMC microarray facility. qPCR analysis was performed on the ABI 7300 cycler. Primers sequences available in Table 2.

[6] = system: human DP spheres gene expression; test: DP spheres microarray / GEDI / gene set enrichment analysis; assay type: cell-based
Procedure: For the DP spheres microarray analysis, cells were prepared from three different donors, and Affymetrix human HG-U133 PLUS 2.0 arrays were hybridized at the CUMC genomics facility. Quality control and data normalization was performed as described above. For the organ culture experiment, 3 sets of repeats were performed, each times using HF derived from a single individual.
For the DP spheres microarray analysis, total RNA was extracted from DP spheres cultured in DMSO, ruxolitinib or tofacitinib from each of the three donors using the Qiagen RNAeasy micro kit. The Ovation RNA Amplification kit (Nugen) was used to generate amplified cDNA for microarray analysis. LIMMA was used with a linear model treating both treatment and the blocking factor, donor, as fixed effects. Contrasts of interest between treatments were used to identify genes that were differentially expressed between pairs of treatments for the treatments DMSO, RUXO, and TOFA. A threshold of absolute fold change=1.5 and P<0.05 was employed. For GSEA, the HG_U133_Plus_2.0 chip annotation file downloaded from ftp.broad.mit.edullpub/gsedannotations/was used to annotate the Affymetrix ProbeSets and to remove duplicate ProbeSets for a given Gene Symbol. Duplicates were removed based on the maximum absolute fold-change observed for each Gene Symbol. Pre-ranked gene lists were generated for each treatment contrast of interest, using the moderated t-statistics returned by LIMMA. GSEA was performed on these lists to identify KEGG pathways overrepresented in each list (ES p-value 0.01).
The gene set enrichment analysis comparing tofacitinib-treated and control cells was performed by generating a list of all detected transcripts ranked by differential expression (p-value), and direction of fold change (up or down). This ranked list was tested for enrichment of the union of territories 2 and 4 (gene list provided in Table 3) as described previously (35). A null distribution for computing the normalized enrichment score (NES) and its associated p-value was obtained by label shuffling to randomize the gene rankings. These randomized sets were then used to compute null enrichment scores over 5000 iterations to generate a null distribution. The observed leading edge enrichment score was normalized to this distribution and a 2-tailed p-value was generated for this NES.

[7] = system: STAT1, STAT3 and STAT5; test: OSM-induced STAT activation in cultured keratinocytes; assay type: cell-based, mouse
[8] = system: human adult scalp hair follicles; test: Human hair follicle organ culture assay; assay type: cell-based
Procedure: Adult human follicles were microdissected from occipital skin under sterile conditions as previously described.
Media was replaced every 2 days, and images of individual follicles were taken every 2 days. Analysis of the growth rate of each follicle was performed using Image J.

[9] = system: hair germ compartment (P-cad+); test: Hair germ proliferation (Ki67 / EdU) in treated mouse skin; assay type: in vivo
Procedure: C57/B6 mice at 8.5 weeks of age were treated on half of the dorsal back with either topical vehicle control (left side) or JAK inhibitors (right side). Four hours post treatment each mouse received a single injection of 20 mg/kg 5-ethynyl-2′-deoxyuridine (EdU) (Invitrogen). One hour after injection, skin was harvested, fixed and stained using the Click-iT EdU Alexa Fluor 488 Imaging Kit (Life Technologies) per manufacturer's instructions, and co-stained for P-cadherin. Experiment was replicated once, with 1 mouse/time point.

[10] = system: human DP spheres; test: Patch assay with dermal papilla spheres; assay type: in vivo; details: DP spheres treated at 400 nM
Procedure: DP cells were grown in spheres as previously described (35). […] Each hanging drop contained 1000 cells, which aggregated to form DP spheroids after 24 hours. 48 hours after plating, 500 spheres in each condition were collected for use in the patch assay. Each experiment was performed with cells derived from a single individual, and four separate experiments were conducted. Keratinocytes were isolated from new born mice following the protocol outlined by Lichti et al (63). Cells were cultured in dkSFM for 2-4 days prior to being harvested for the patch assay. 1×10^6 newborn murine keratinocytes were then mixed together with 500 human DP spheres in each condition, and injected subdermally into dorsal skin of a nude mouse. 12 days after performing the injections, cysts had developed in the dermis, some which contained HF and hair fibers. These cysts were collected, photographed and then digested in 0.35% collagenase. The digested slurries were spread onto microscope slides and hair fiber counts were manually performed under a stereo microscope.

[11] = system: STAT3 and STAT5; test: STAT3 and STAT5 activation in whole skin treated in vivo; design: species or system mouse
[12] = system: OSM-Rβ; test: OSM-Rβ expression in cultured mouse keratinocytes; assay type: cell-based; details: recombinant mouse OSM at 20 ng/ml

Molecule: N#CC[C@H](C1CCCC1)n1cc(-c2ncnc3[nH]ccc23)cn1 [ruxolitinib]
- days of treatment until treated follicles re-initiate anagen [1]: ≤ 18 days
- mice displaying skin darkening and hair growth within 10 days of starting treatment [1]: ~90%

Molecule: C[C@@H]1CCN(C(=O)CC#N)C[C@@H]1N(C)c1ncnc2[nH]ccc12 [tofacitinib]
- OSM-Rβ expression, qRT-PCR [2]: Downregulation
- HF growth on graft compared to controls [3]: denser HF growth
- effect on OSM growth inhibition ([4]; added to OSM): reversed partially
- number of keratinocyte colonies ([4]; drug alone): increase the number of keratinocyte colonies
- expression of hair cycle regulators Shh and Prom1 ([5]; T5 vs T0): significantly upregulated
- pathways enriched by only one of the drug treatments ([5]; T5 vs T0): pathways involved in cell motility and migration, such as Rho and integrin signaling
- pathways enriched in both drug treatments (IPA) ([5]; T5 vs T0, not in vehicle): melanogenesis and the Wnt pathway were enriched
- expression of LEF1, WIF1 and CD133 [6]: upregulate
- expression of TGβ2, BMP6 and LEF1 [6]: upregulated
- gene set enrichment of territory T4 ([6]; treated vs untreated spheres): significantly enriched
- gene set enrichment of territory T2 ([6]; treated vs untreated spheres, overlap only marginally significant): enriched
- expression of FGFR1, ACVRL1, IGFR1, OSMR and PTGFR (region 1) ([6]; vs control): repressed in both treatments but lower in tofacitinib treatment
- expression of members of the TGFβ pathway and the BMP pathway (regions 3 and 4) ([6]; vs control): upregulated
- expression of pro-apoptotic genes BAX, BCL2L11 and CASP12 (region 2) ([6]; vs control): downregulated
- key regulators of the WNT pathway (LEF1) and members of the NOTCH pathway ([6]; vs control): overrepresented
- effect on OSM-induced STAT1, STAT3 and STAT5 activation ([7]; in vitro cultured keratinocytes): efficiently abrogated
- length of hair shafts / rate of hair elongation ([8]; 400 nM, follicles from a single donor): significantly increased length of hair shafts
- growth rate of anagen, repeat experiment ([8]; follicles from two individuals, did not reach statistical significance): increased the growth rate of anagen
- days of treatment until treated follicles re-initiate anagen [1]: ≤ 21 days
- mice displaying skin darkening and hair growth within 10 days of starting treatment [1]: ~90%
- re-entry into the hair cycle ([1]; topical, half of dorsal back, treated three weeks): rapid re-entry into the hair cycle, with kinetics similar to the Shh agonist
- Edu+ cells within the hair germ (P-cadherin+) compartment ([9]; after three treatments, skin harvested 5 hours after treatment): clearly visible
- proliferation within the hair germ compartment (P-cad+) ([9]; mice in telogen treated 4 days): Significant proliferation
- inductivity of DP spheres [10]: did enhance inductivity
- size and numbers of HFs induced ([10]; with neonatal mouse keratinocytes in nude mice): larger and significantly greater numbers of HFs
- STAT3 and STAT5 activation [11]: effective inhibition

B1: OSM: oncostatin M, secreted cytokine of the IL-6 family; recombinant mouse OSM used at 20 ng/ml (protein, UniProt P53347 25-206, looked up)
Oncostatin-M: NRGCSNSSSQLLSQLQNQANLTGNTESLLEPYIRLQNLNTPDLRAACTQHSVAFPSEDTLRQLSKPHFLSTVYTTLDRVLYQLDALRQKFLKTPAFPKLDSARHNILGIRNNVFCMARLLNHSLEIPEPTQTDSGASRSTTTPDVFNTKIGSCGFLWGYHRFMGSVGRVFREWDDGSTRSRR
- expression of OSM-Rβ [12]: upregulated
- effect on keratinocyte colony growth ([4]; OSM alone): growth inhibitory effect
- activation of STAT1, STAT3 and STAT5 transcription factors ([7]; within 10 minutes of OSM treatment): activated
